Source: PubChem BioAssay AID330 (DTP/NCI, 2004)
“And” between values parts separate entries of the source, which are not always exact repeats. Equal values may be shown once. Toxic doses and inconclusive results are not listed. Peptide text beside a SMILES is read from it. * marks the point of attachment. Cbz = O=C(OCc1ccccc1)*

System: P388 leukemia ip, CD2F1 mice, survival T/C
Assay: NCI In Vivo Anticancer Drug Screen. Data for tumor model P388 Leukemia (intraperitoneal) in CD2F1 (CDF1) mice
Details: endpoint: median survival time, higher = longer survival
In short: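 Mice carrying the transplanted tumor received test compound or vehicle. Survival was recorded in each group, and the value is the treated-group measurement divided by that of the vehicle-treated control group.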

[1] = dose: 50.0 mg/kg/injection, schedule: Q01DX005 (ip), vehicle: Klucel (hydroxypropylcellulose) (HPC)
[2] = dose: 100.0 mg/kg/injection, schedule: Q01DX005 (ip), vehicle: Klucel (hydroxypropylcellulose) (HPC)
[3] = dose: 200.0 mg/kg/injection, schedule: Q01DX005 (ip), vehicle: Klucel (hydroxypropylcellulose) (HPC)
[4] = dose: 60.0 mg/kg/injection, schedule: Q01DX005 (ip), vehicle: saline with Tween-80
[5] = dose: 120.0 mg/kg/injection, schedule: Q01DX005 (ip), vehicle: saline with Tween-80
[6] = dose: 240.0 mg/kg/injection, schedule: Q01DX005 (ip), vehicle: saline with Tween-80
[7] = dose: 50.0 mg/kg/injection, schedule: Q01DX005 (ip), vehicle: saline with Tween-80
[8] = dose: 100.0 mg/kg/injection, schedule: Q01DX005 (ip), vehicle: saline with Tween-80
[9] = dose: 100.0 mg/kg/injection, schedule: Q04DX003 (ip), vehicle: saline with Tween-80
[10] = dose: 200.0 mg/kg/injection, schedule: Q04DX003 (ip), vehicle: saline with Tween-80
[11] = dose: 400.0 mg/kg/injection, schedule: Q04DX003 (ip), vehicle: saline with Tween-80
[12] = dose: 200.0 mg/kg/injection, schedule: Q01DX005 (ip), vehicle: saline with Tween-80

SMILES: COC(=O)CCC1=C(C)c2cc3[n-]c(cc4nc(cc5[n-]c(cc1n2)c(CCC(=O)OC)c5C)C(C(C)=O)=C4C)c(C(C)=O)c3C.[Cl-].[Fe+3]
- T/C [1]: 104 % of control
- T/C [2]: 106 % of control
- T/C [3]: 99 % of control

SMILES: OC1COC(Sc2ncc[nH]2)C(O)C1O (configuration not stated)
- T/C [4]: 97 % of control
- T/C (dose: 60.0 mg/kg/injection, schedule: Q01DX005 (ip), vehicle: saline): 96 % of control
- T/C [5]: 97 % of control
- T/C (dose: 120.0 mg/kg/injection, schedule: Q01DX005 (ip), vehicle: saline): 97 % of control
- T/C [6]: 94 % of control
- T/C (dose: 240.0 mg/kg/injection, schedule: Q01DX005 (ip), vehicle: saline): 97 % of control

SMILES: [O-][n+]1c2ccccc2nc2ccccc21
- T/C [1]: 115 % of control
- T/C [2]: 110 % of control
- T/C [3]: 100 % of control

SMILES: O=C1CCc2nc3ccccc3c(=O)n21
- T/C (dose: 50.0 mg/kg/injection, schedule: Q01DX009 (ip), vehicle: Klucel (hydroxypropylcellulose) (HPC)): 96 % of control
- T/C (dose: 100.0 mg/kg/injection, schedule: Q01DX009 (ip), vehicle: Klucel (hydroxypropylcellulose) (HPC)): 96 % of control
- T/C (dose: 200.0 mg/kg/injection, schedule: Q01DX009 (ip), vehicle: Klucel (hydroxypropylcellulose) (HPC)): 94 % of control
- T/C (dose: 400.0 mg/kg/injection, schedule: Q01DX009 (ip), vehicle: Klucel (hydroxypropylcellulose) (HPC)): 100 % of control

SMILES: C/[N+]([O-])=N\Nc1ccccc1SCCSc1ccccc1N/N=[N+](\C)[O-]
- T/C (dose: 60.0 mg/kg/injection, schedule: Q01DX005 (ip), vehicle: Klucel (hydroxypropylcellulose) (HPC)): 91 % of control
- T/C (dose: 120.0 mg/kg/injection, schedule: Q01DX005 (ip), vehicle: Klucel (hydroxypropylcellulose) (HPC)): 89 % of control

SMILES: CCC1(c2ccnc3ccccc23)C(=O)OC(C)(C)OC1=O
- T/C (dose: 50.0 mg/kg/injection, schedule: Q01DX009 (ip), vehicle: distilled water + alcohol): 99 % of control
- T/C (dose: 100.0 mg/kg/injection, schedule: Q01DX009 (ip), vehicle: distilled water + alcohol): 98 % of control
- T/C (dose: 200.0 mg/kg/injection, schedule: Q01DX009 (ip), vehicle: distilled water + alcohol): 87 % of control

SMILES: COc1cccc(Nc2ncnc3c2c(=O)n(C)c(=O)n3C)c1
- T/C (dose: 25.0 mg/kg/injection, schedule: Q01DX005 (ip), vehicle: saline with Tween-80): 91 % of control
- T/C [7]: 87 % of control
- T/C [8]: 87 % of control

SMILES: O=C1CC[S][Sn][O]1
- T/C [9]: 100 % of control
- T/C [10]: 95 % of control
- T/C [11]: 95 % of control

SMILES: CC/C(Cc1ccc(OC)cc1)=C(/CC)c1ccc(OC)cc1
- T/C [1]: 98 % of control
- T/C [2]: 92 % of control
- T/C [3]: 102 % of control

SMILES: O=C(N1C2c3ccsc3[C@@H](O)C21)C(F)(F)F (some centres not stated)
- T/C [7]: 88 % of control
- T/C [8]: 95 % of control
- T/C [12]: 100 % of control

SMILES: CC(C)CC(NC(=O)C(Cc1ccccc1)NC(=O)OCc1ccccc1)C(=O)NC(C)C(=O)O (stereo not drawn) (Cbz-Phe-Leu-Ala-OH; configuration not given here)
- T/C [7]: 95 % of control
- T/C [8]: 97 % of control
- T/C [12]: 104 % of control

SMILES: COc1ccc(C[C@H](N)C(=O)NC2C(CO)OC(n3cnc4c(N(C)C)ncnc43)C2O)cc1 (some centres not stated)
- T/C (dose: 4.0 mg/kg/injection, schedule: Q03HX024 (ip), vehicle: saline): 115 % of control
- T/C (dose: 8.0 mg/kg/injection, schedule: Q01DX005 (ip), vehicle: saline): 112 % of control
- T/C (dose: 8.0 mg/kg/injection, schedule: Q01DX009 (ip), vehicle: saline): 107 % of control
- T/C (dose: 16.0 mg/kg/injection, schedule: Q01DX005 (ip), vehicle: saline): 106 % of control
- T/C (dose: 16.0 mg/kg/injection, schedule: Q01DX009 (ip), vehicle: saline): 100 % of control
- T/C (dose: 16.0 mg/kg/injection, schedule: Q03HX024 (ip), vehicle: saline): 92 % of control
- T/C (dose: 20.0 mg/kg/injection, schedule: Q01DX009 (ip), vehicle: water): 92 % of control
- T/C (dose: 22.0 mg/kg/injection, schedule: Q01DX009 (ip), vehicle: saline with Tween-80): 120 % of control
- T/C (dose: 32.0 mg/kg/injection, schedule: Q01DX005 (ip), vehicle: saline): 106 % of control
- T/C (dose: 32.0 mg/kg/injection, schedule: Q01DX009 (ip), vehicle: saline): 109 % of control
- T/C (dose: 32.0 mg/kg/injection, schedule: Q04DX003 (ip), vehicle: saline): 107 % of control
- T/C (dose: 33.0 mg/kg/injection, schedule: Q01DX009 (ip), vehicle: saline with Tween-80): 122 % of control
- T/C (dose: 40.0 mg/kg/injection, schedule: Q01DX009 (ip), vehicle: water): 92 % of control
- T/C (dose: 60.0 mg/kg/injection, schedule: Q01DX009 (ip), vehicle: water): 90 % of control
- T/C (dose: 64.0 mg/kg/injection, schedule: Q01DX001 (ip), vehicle: saline): 101 % of control and 92 % of control
- T/C (dose: 64.0 mg/kg/injection, schedule: Q01DX005 (ip), vehicle: saline): 114 % of control
- T/C (dose: 64.0 mg/kg/injection, schedule: Q01DX009 (ip), vehicle: saline): 109 % of control
- T/C (dose: 64.0 mg/kg/injection, schedule: Q04DX003 (ip), vehicle: saline): 111 % of control
- T/C (dose: 80.0 mg/kg/injection, schedule: Q01DX009 (ip), vehicle: water): 92 % of control
- T/C (dose: 100.0 mg/kg/injection, schedule: Q01DX009 (ip), vehicle: water): 95 % of control
- T/C [9]: 104 % of control
- T/C (dose: 128.0 mg/kg/injection, schedule: Q01DX001 (ip), vehicle: saline): 118 % of control and 97 % of control
- T/C (dose: 128.0 mg/kg/injection, schedule: Q01DX005 (ip), vehicle: saline): 124 % of control
- T/C (dose: 128.0 mg/kg/injection, schedule: Q01DX009 (ip), vehicle: saline): 118 % of control
- T/C (dose: 128.0 mg/kg/injection, schedule: Q04DX003 (ip), vehicle: saline): 100 % of control
- T/C (dose: 150.0 mg/kg/injection, schedule: Q01DX009 (ip), vehicle: saline sonified): 150 % of control
- T/C [10]: 95 % of control
- T/C (dose: 256.0 mg/kg/injection, schedule: Q01DX001 (ip), vehicle: saline): 111 % of control
- T/C (dose: 256.0 mg/kg/injection, schedule: Q04DX003 (ip), vehicle: saline): 90 % of control
- T/C [11]: 95 % of control

SMILES: O=CC1C(=O)NC(=O)NC1=O
- T/C (dose: 25.0 mg/kg/injection, schedule: Q04DX003 (ip), vehicle: saline): 112 % of control
- T/C (dose: 50.0 mg/kg/injection, schedule: Q04DX003 (ip), vehicle: saline): 100 % of control
- T/C (dose: 100.0 mg/kg/injection, schedule: Q04DX003 (ip), vehicle: saline): 114 % of control

SMILES: N#CN=[N+]([O-])c1ccc(C(=O)O)cc1
- T/C (dose: 7.5 mg/kg/injection, schedule: Q04DX003 (ip), vehicle: Klucel (hydroxypropylcellulose) (HPC)): 97 % of control
- T/C (dose: 7.5 mg/kg/injection, schedule: Q04DX003 (ip), vehicle: saline with Tween-80): 111 % of control
- T/C (dose: 15.0 mg/kg/injection, schedule: Q04DX003 (ip), vehicle: Klucel (hydroxypropylcellulose) (HPC)): 105 % of control
- T/C (dose: 15.0 mg/kg/injection, schedule: Q04DX003 (ip), vehicle: saline with Tween-80): 112 % of control
- T/C (dose: 30.0 mg/kg/injection, schedule: Q04DX003 (ip), vehicle: saline with Tween-80): 124 % of control

SMILES: CCCCOC(=O)NC(=O)c1cc2cc(Br)cc(Br)c2oc1=O
- T/C [4]: 94 % of control
- T/C [5]: 101 % of control
- T/C [6]: 92 % of control

SMILES: CN=C(N)N/N=C(\c1ccccc1)c1cc(Cl)c(O)c(Cl)c1
- T/C (dose: 25.0 mg/kg/injection, schedule: Q04DX002 (ip), vehicle: saline with Tween-80): 101 % of control
- T/C (dose: 50.0 mg/kg/injection, schedule: Q04DX002 (ip), vehicle: saline with Tween-80): 100 % of control
- T/C (dose: 100.0 mg/kg/injection, schedule: Q04DX002 (ip), vehicle: saline with Tween-80): 100 % of control
- T/C (dose: 200.0 mg/kg/injection, schedule: Q04DX002 (ip), vehicle: saline with Tween-80): 104 % of control
- T/C (dose: 400.0 mg/kg/injection, schedule: Q04DX002 (ip), vehicle: saline with Tween-80): 103 % of control

SMILES: COc1cc2c(O)c(c1)CCCC1=CC(=O)C=C(CCC2)C1=O
- T/C (dose: 100.0 mg/kg/injection, schedule: Q01DX001 (ip), vehicle: saline with Tween-80): 99 % of control
- T/C (dose: 200.0 mg/kg/injection, schedule: Q01DX001 (ip), vehicle: saline with Tween-80): 101 % of control
- T/C (dose: 400.0 mg/kg/injection, schedule: Q01DX001 (ip), vehicle: saline with Tween-80): 94 % of control

SMILES: C=C1C[C@@H](C2OC3OC(C)(C)OC3C2OCc2ccccc2)OC1=O (some centres not stated)
- T/C [7]: 116 % of control
- T/C [8]: 124 % of control
